The values below come from patent US8921642B2, “Conditional-stop dimerizable caspase transgenic animals” (Massachusetts Eye and Ear Infirmary, priority 2008, dated 2014).

SMILES strings stand for the structures.

In experiment [1] the target is FKBPs with a single amino acid substitution: Phe36Val (Homo sapiens, UniProt P62942, F37V). The settings on record: cited from earlier work.
The subject of experiment [2] is cells cotransfected with pCAN-Cre and pCMVflox (dimerizable caspase). The experiment can be described thus: MTT assay of cell viability after dimerizer treatment of transfected cells. It is filed as cell-based. The settings on record: treated 24 hours after transfection, read 48 hours later; only in the group where both Cre-recombinase and transgene were transfected. On the procedure: To confirm that the system works, the effect of the dimerizer, AP20187, was examined in vitro on cells that were transfected with either pCAN-Cre or pCMVflox, or cotransfected with both. 24 hours after transfection, cells were treated with the dimerizer AP20187, and 48 hours later cell-viability/dying cells were examined using a standard MTT (3-(4,5-dimethylthiazol-2-yl)-2,5-diphenyltetrazolium bromide) assay.

Experiment [3] has as its system auditory hair cells. The experiment in a line: in vivo hair cell ablation and hearing loss in Brn3c-Cre double transgenic mice. More on the design: species or system mouse. The source says: Auditory hair cells are the mechanosensory channel that transduce sound waves to action potentials. Since mammalian hair cells cannot spontaneously regenerate once lost, regenerative medicine for hearing loss would be of great importance, and it has been difficult to establish a reproducible model for ablation of hair cells. The transgenic mice described herein (line D) were mated with a hair cell-specific, Brn3c-Cre mouse from Doug Vetter (Xiang et al., Proc. Natl. Acad. Sci. U.S.A. 94(17):9445-50 (1997); Sage et al., Proc. Nat. Acad. Sci. 103(19):7345-7350 (2006)).
In vivo experiments were also performed. Animals at 6-8 weeks of age were administered AP20187 (10 mg/kg ip) and analyzed six days later. […] Approximately 35˜40% of inner hair cells and 15% of outer hair cells were lost, as judged by Pv3 staining.

Experiment [4] has as its target native FKBPs (Homo sapiens, UniProt P62942). The settings on record: cited from earlier work.
Experiment [5] concerns cells co-transfected with Cre and dimerizable caspase-3 transgene. The experiment in a line: LIVE/DEAD analysis of co-transfected cells versus original pSHMFv2Caspase3E. It is filed as cell-based. The conditions noted are these: LIVE/DEAD analysis in the presence of AP20187. The source says: To determine the extent of cell ablation, the co-transfected cells were compared with the original pSHMFv2Caspase3E in the presence of AP20187 using LIVE/DEAD analysis (Invitrogen). The number of dying cells and the decrease in cell viability was almost same in the co-transfected group as compared to the original plasmid transfection group (FIGS. 6B-6C).

The test system of experiment [6] is inner and outer hair cells. The experiment can be described thus: organ of Corti explant culture of double transgenics in medium containing AP20187. It is filed as cell-based, mouse. The conditions noted are these: within 24 hours of incubation.
The subject of experiment [7] is beta cells of the pancreas. The experiment can be described thus: in vivo beta cell ablation in Ins-Cre double transgenic mice (IPGTT, GTT). More on the design: species or system mouse. The protocol:
Diabetes is cause by loss of insulin producing beta cells in the pancreas. These cells cannot be replaced by known techniques. A model for impaired glucose tolerance was constructed by crossing the transgenic mouse (line B) described herein with an Ins-Cre mouse (Jackson Labs). […] This model has the characteristics of a pre-diabetic mouse.
The FK506 analogue AP20187 was administered by intraperitoneal (IP) injection. β-cell death was monitored in the animals by intraperitoneal glucose tolerance testing (IPGTT) using standard methodology.
The effect on blood glucose levels was also evaluated using a standard glucose tolerance test (GTT). 30 minutes after a glucose challenge, a blood sample was obtained from the tail vein and a measurement of blood glucose was obtained with a glucose monitor.

The subject of experiment [8] is Rosa26-CreER (Cre recombinase). The experiment in a line: tamoxifen-induced Cre recombination in cells from Rosa26-CreER double transgenic mice. The settings on record: cells from line F x Rosa26-CreER double transgenic mice, in the presence of tamoxifen. It is filed as cell-based, mouse. An excerpt: To provide a model for ready confirmation of the function of the conditional-stop dimerizable caspase transgene, the transgenic mice described herein (line F) were crossed with Rosa26-CreER mice. In vitro experiments on cells from the mice were contacted with tamoxifen to induce expression of the Cre recombinase, and the results, shown in FIG. 13, indicate successful recombination and expression of the transgene.

Setting [9] is: 10 mg/kg ip, six days later, treated animals.
Where [10] appears, read: immunohistochemistry after AP20187 administration.

Chain of FKBPs with a single amino acid substitution: Phe36Val (P62942 2-108 F37V limits assumed): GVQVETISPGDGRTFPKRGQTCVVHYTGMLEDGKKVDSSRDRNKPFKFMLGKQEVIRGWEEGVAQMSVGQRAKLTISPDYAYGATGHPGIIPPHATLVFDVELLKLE
Chain of native FKBPs (P62942 whole entry): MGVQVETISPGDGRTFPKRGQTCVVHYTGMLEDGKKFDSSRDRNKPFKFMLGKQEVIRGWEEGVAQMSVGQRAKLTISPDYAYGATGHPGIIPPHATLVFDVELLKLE

As for `CC[C@H](C(=O)N1CCCC[C@H]1C(=O)O[C@H](CCc1ccc(OC)c(OC)c1)c1cccc(OCC(=O)NCC(CNC(=O)COc2cccc([C@@H](CCc3ccc(OC)c(OC)c3)OC(=O)[C@@H]3CCCCN3C(=O)[C@@H](CC)c3cc(OC)c(OC)c(OC)c3)c2)CN(C)C)c1)c1cc(OC)c(OC)c(OC)c1` [AP20187], the “binding to FKBPs with Phe36Val substitution” value in experiment [1] was “bind with high affinity”. Besides, in experiment [2], the “cell viability by MTT assay” value is on record as “significantly reduced”. For the same compound, in experiment [3] (10 mg/kg ip, analyzed six days later, compared with same-animal measurements before treatment), the “decrease in the amplitude of the auditory brainstem response (ABR)” value is 60%. Moreover, in experiment [3] (10 mg/kg ip, six days later), the “inner hair cells lost after drug treatment” value is reported as 37.8%. Moreover, in experiment [3] (setting [9]), the “ISO-DP (threshold required to obtain a given level of response)” value is given as “significantly increased” and the “distortion product otoacoustic emissions (DPOAE)” value is on record as “significantly decreased”. In experiment [3] (setting [10]), the “changes in the spiral ganglion” value is listed as “No remarkable changes”; the “inner hair cells lost, as judged by Pv3 staining” value is 35˜40%; the “outer hair cells lost, as judged by Pv3 staining” value was around 15%. Further, the “binding to the native FKBPs” value in experiment [4] is listed as “do not bind”. Also, the “number of dying cells and decrease in cell viability, co-transfected group compared to original plasmid transfection group” value in experiment [5] is given as “almost same”. Besides, in experiment [6], the “inner hair cell loss” value worked out at 38.8% and the “outer hair cell loss” value was 32.4%. Also, the “blood glucose levels in glucose tolerance test (GTT)” value in experiment [7] (30 minutes after a glucose challenge, tail vein blood) was “significant increased”. Further, the “glucose control by intraperitoneal glucose tolerance testing (IPGTT)” value in experiment [7] (IP injection, Ins-Cre double transgenic animals, more pronounced in females than in males) was “partial loss of glucose control”.
For the compound `CC/C(=C(\c1ccccc1)c1ccc(OCCN(C)C)cc1)c1ccccc1` [tamoxifen], in experiment [8], the “recombination of the transgene (PCR product on gel)” value is listed as “recombined product at 200 bp is present”.
